Literature values in patent US8481574B2, “Compounds as cannabinoid receptor ligands” (priority 2006, dated 2013).

Legend:
animal models of pain = details: animal models of acute thermal pain, persistent pain, inflammatory pain and neuropathic pain
[1] = at fully efficacious doses
rodent models of pain = details: rodent models of neuropathic, incisional, and both chronic and acute inflammatory pain
rat = rat formalin model of persistent pain
microglia = details: in vitro
[2] = test system: CB1 receptor knockout mice
[3] = test system: apolipoprotein E knockout mice; details: low doses
mice = details: model for post-menopausal osteoporosis

## CN1CCCCC1Cn1cc(C(=O)c2cc([N+](=O)[O-])ccc2I)c2ccccc21 (stereo not shown) [AM-1241]
Animal models of pain
  analgesic efficacy: robust analgesic efficacy
[1]
  CB1 receptor-mediated CNS side effects: devoid of typical CB1 receptor-mediated CNS side effects

## COc1ccc2c(c1)c(CCN1CCOCC1)c(C)n2C(=O)c1cccc(Cl)c1Cl [GW405833]
[1]
  CB1 receptor-mediated CNS side effects: devoid of typical CB1 receptor-mediated CNS side effects
Rodent models of pain
  efficacy in pain models: efficacious

## CCCCCCC(C)(C)c1cc(OC)c([C@@H]2C=C(CO)[C@@H]3C[C@H]2C3(C)C)c(OC)c1 [HU-308]
rat
  antinociceptive response: elicits an antinociceptive response

## CCCC(C)(C)c1ccc2c(c1)OC(C)(C)[C@@H]1CC=C(C)C[C@@H]21 [JWH-133]
microglia
  effect on β-amyloid-induced microglial activation and neurotoxicity: abrogated β-amyloid-induced microglial activation and neurotoxicity

## (−)-Δ^9-Tetrahydrocannabinol [Δ^9-THC]
[2]
  analgesic efficacy: retains some analgesic efficacy
[3]
  effect on progression of atherosclerotic lesions: slowed the progression of atherosclerotic lesions

## SR144528
mice
  effect on ovariectomy-induced bone loss: reverse ovariectomy-induced bone loss
osteoclast
  effect on osteoclast activity: inhibit osteoclast activity
